The text below walks through data of article PMC6215199 (Toxins, 2018).

For test [1], the target named is T1, Batx-I (Bothrops atrox, UniProt P0DJE1). In words: biochemical. The class given is biochemical.
In test [2] the target is T1, Batx-I. The class given is biochemical.
Test [3] deals with T1, Batx-I. The conditions noted are these: cited from earlier work.
A further test relates to BaP1. The conditions noted are these: EDTA chelates the catalytic Zn2+ ion; cited from earlier work.

A word on the IC50: it is the concentration that inhibits the measured activity by half. A higher IC50 goes with weaker potency in that assay.

“Also recorded” adds a separate entry of the source.

T1 sequence (P0DJE1 whole entry, looked up): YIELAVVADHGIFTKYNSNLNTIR

Consider `C=C(C)[C@@H]1CC[C@]2(CO)CC[C@]3(C)[C@H](CC[C@@H]4[C@@]5(C)CC[C@H](O)C(C)(C)[C@@H]5CC[C@]43C)[C@@H]12` [Betulin], for which, at Batx-I [1], the “Inhibition of metalloproteinase proteolytic activity (in words)” value is reported as “negligible activity” and inhibition was half-maximal at 1470 ± 130 µM (IC50).
Take `C=C(C)[C@@H]1CC[C@]2(C(=O)O)CC[C@]3(C)[C@H](CC[C@@H]4[C@@]5(C)CC[C@H](O)C(C)(C)[C@@H]5CC[C@]43C)[C@@H]12` [Betulinic acid]: at Batx-I [2], the Type of inhibition entry was “competitive inhibitors” and the “ΔG^∘ Experimental” value is -4.5 ± 0.1 kcal/mol. This compound displayed an IC50 against Batx-I [1] of 115 ± 16 µM.
For `O=C(O)CN(CCN(CC(=O)O)CC(=O)O)CC(=O)O` [EDTA, Ethylenediamine-tetraacetic acid], the “Effect on proteolytic activity of Batx-I” value on Batx-I [3] is reported as “eliminated”. In addition, the “Effect on proteolytic activity of BaP1” value in the test with BaP1 was “eliminated”.
`C[C@H]1[C@H](C)CC[C@]2(C(=O)O)CC[C@]3(C)C(=CC[C@@H]4[C@@]5(C)C[C@@H](O)[C@H](O)[C@@](C)(CO)[C@@H]5[C@H](O)C[C@]43C)[C@H]12` [Madecassic acid]: the IC50 against Batx-I [1] amounted to 540 ± 80 µM.
`CC1(C)CC[C@]2(C(=O)O)CC[C@]3(C)C(=CC[C@@H]4[C@@]5(C)CC[C@H](O)C(C)(C)[C@@H]5CC[C@]43C)[C@@H]2C1` [Oleanolic acid]: on Batx-I [2], the Type of inhibition result was “competitive inhibitors” and the “ΔG^∘ Experimental” value was -3.7 ± 0.1 kcal/mol. At Batx-I [1], this compound registered an IC50 of 360 ± 70 µM.
For `C[C@H]1[C@H](C)CC[C@]2(C(=O)O)CC[C@]3(C)C(=CC[C@@H]4[C@@]5(C)CC[C@H](O)C(C)(C)[C@@H]5CC[C@]43C)[C@H]12` [Ursolic acid] the same measures were “competitive inhibitors”, -3.5 ± 0.1 kcal/mol and 220 ± 40 µM.
For `CC1CCC2(C)CCC3(C)C(=CCC4C5(C)CCC(O)C(C)(C(=O)O)C5CCC43C)C2C1C` (stereo not drawn) [β -Boswellic acid], the “Inhibition of metalloproteinase proteolytic activity (in words)” value at Batx-I [1] is “negligible activity; also recorded: does not inhibit”. Also, the activity at 2000 µM on Batx-I [1] (read-out: Batx-I proteolytic activity still observed) amounted to 70%.
